Active and inactive are the calls of the source.
Legend:
Mus musculus [1] = assay: Anticonvulsant activity in 60-Hz corneal stimulation-induced full kindling albino CF1 mouse model of epilepsy assessed as reduction in seizure score at 20 mg/kg, ip administered 0.25 hrs prior to 60-Hz corneal stimulation; assay type: functional, organism-based
Rattus norvegicus [2] = assay: Antiallodynic activity in albino Sprague-Dawley rat model of sciatic nerve ligation-induced neuropathic pain assessed as increase in paw withdrawal threshold at 50 mg/kg, po measured after 4 hrs by Von Frey test relative to control; assay type: functional
[3] = Toxicity in albino CF1 mouse assessed as body weight at 43 mg/kg, ip measured at 0.25 hrs (reference value: 26.4 +/- 0.4 g); assay type: organism-based; conditions: in vivo
Mus musculus [4] = assay: Anticonvulsant activity in albino CF1 mouse assessed as metrazol dose causing first clonus at 150 mg/kg, ip administered 0.25 hrs prior to MTZ challenge (reference value: 31.1 +/- 1.4 mg/kg); assay type: functional
Mus musculus [5] = assay: Anticonvulsant activity in ip dosed 60-Hz corneal stimulation-induced full kindling albino CF1 mouse model of epilepsy assessed as reduction in seizure score treated 0.25 hrs prior to 60-Hz corneal stimulation; assay type: functional
Rattus norvegicus [6] = assay: Antiallodynic activity in albino Sprague-Dawley rat model of sciatic nerve ligation-induced neuropathic pain assessed as time required to show maximum increase in paw withdrawal threshold at 50 mg/kg, po Von Frey test; assay type: functional
Mus musculus [7] = assay: Anticonvulsant activity in albino CF1 mouse model of metrazol-induced seizures assessed as metrazol dose causing first twitch at 43 mg/kg, ip administered 0.25 hrs prior to MTZ challenge (reference value: 27.9 +/- 1.2 mg/kg); assay type: functional
[8] = Toxicity in albino CF1 mouse assessed as body weight at 150 mg/kg, ip measured at 0.25 hrs (reference value: 26.4 +/- 0.4 g); assay type: organism-based; conditions: in vivo
Mus musculus [9] = assay: Anticonvulsant activity in albino CF1 mouse assessed as metrazol dose causing first clonus at 43 mg/kg, ip administered 0.25 hrs prior to MTZ challenge (reference value: 31.1 +/- 1.4 mg/kg); assay type: functional
Rattus norvegicus [10] = assay: Antiallodynic activity in albino Sprague-Dawley rat model of sciatic nerve ligation-induced neuropathic pain assessed as increase in paw withdrawal threshold at 50 mg/kg, po measured after 6 hrs by Von Frey test relative to control; assay type: functional
Mus musculus [11] = assay: Anticonvulsant activity in albino CF1 mouse model of metrazol-induced seizures assessed as time to twitch at 150 mg/kg, ip administered 0.25 hrs prior to MTZ challenge (reference value: 26.1 +/- 1.2 s); assay type: functional
Rattus norvegicus [12] = assay: Antiallodynic activity in albino Sprague-Dawley rat model of sciatic nerve ligation-induced neuropathic pain assessed as increase in paw withdrawal threshold at 50 mg/kg, po measured after 2 hrs by Von Frey test relative to control; assay type: functional
Brain [13] = assay: (§1) In vitro anticonvulsant activity in kainic acid-induced albino Sprague Dawley rat brain assessed as blockade of ACSF-stimulated spontaneous electrographic seizure-like activity in medial entorhinal cortex hippocampal brain slices by measuring burst duration at 100 uM measured after 20 mins relative to control; assay type: functional
Mus musculus [14] = assay: Anticonvulsant activity in albino CF1 mouse model of metrazol-induced seizures assessed as metrazol dose causing first twitch at 150 mg/kg, ip administered 0.25 hrs prior to MTZ challenge (reference value: 27.9 +/- 1.2 mg/kg); assay type: functional
Mus musculus [15] = assay: Analgesic activity in formalin-induced albino CF1 mouse model of hyperalgesia assessed as time spent in paw licking during inflammatory phase at 43 mg/kg, ip administered 0.25 hrs prior to formalin challenge measured first 2 mins of five minutes test for 10 to 40 mins by formalin test relative to control; assay type: functional
Rattus norvegicus [16] = assay: Antiallodynic activity in albino Sprague-Dawley rat model of sciatic nerve ligation-induced neuropathic pain assessed as increase in paw withdrawal threshold at 50 mg/kg, po measured after 1 hr by Von Frey test relative to control; assay type: functional
Mus musculus [17] = assay: Anticonvulsant activity in albino CF1 mouse assessed as time to clonus at 150 mg/kg, ip administered 0.25 hrs prior to MTZ challenge (reference value: 29 +/- 1.5 s); assay type: functional
Mus musculus [18] = assay: Analgesic activity in formalin-induced albino CF1 mouse model of hyperalgesia assessed as time spent in paw licking during acute phase at 43 mg/kg, ip administered 0.25 hrs prior to formalin challenge measured first 2 mins of five minutes test for 10 mins by formalin test relative to control; assay type: functional
Mus musculus [19] = assay: Anticonvulsant activity in albino CF1 mouse model of metrazol-induced seizures assessed as time to twitch at 43 mg/kg, ip administered 0.25 hrs prior to MTZ challenge (reference value: 26.1 +/- 1.2 s); assay type: functional
Mus musculus [20] = assay: Anticonvulsant activity in 60-Hz corneal stimulation-induced full kindling albino CF1 mouse model of epilepsy assessed as reduction in seizure score at 60 mg/kg, ip administered 0.25 hrs prior to 60-Hz corneal stimulation; assay type: functional, organism-based
Mus musculus [21] = assay: Anticonvulsant activity in albino CF1 mouse assessed as time to clonus at 43 mg/kg, ip administered 0.25 hrs prior to MTZ challenge (reference value: 29 +/- 1.5 s); assay type: functional
Mus musculus [22] = assay: Neuroprotective activity against controlled cortical impact-induced C57Bl/6 acute mouse model of traumatic brain injury assessed as lesion volume at 43 mg/kg, ip administered twice daily for 3 days starting from 0.5 hrs post controlled cortical impact challenge measured post-last dose by naurotrace 435/455 staining-based fluorescent microscopy (reference value: 11.9 +/- 0.7 mm3); assay type: functional
Mus musculus [23] = assay: Anticonvulsant activity in 60-Hz corneal stimulation-induced full kindling albino CF1 mouse model of epilepsy assessed as reduction in seizure score at 86 mg/kg, ip administered 0.25 hrs prior to 60-Hz corneal stimulation; assay type: functional, organism-based
Brain [24] = assay: as §1, with “rate” for “duration”; assay type: functional
Mus musculus [25] = assay: Analgesic activity in formalin-induced albino CF1 mouse model of hyperalgesia assessed as time spent in paw licking during inflammatory phase at 186 mg/kg, ip administered 0.25 hrs prior to formalin challenge measured first 2 mins of five minutes test for 10 mins by formalin test relative to control; assay type: functional
Mus musculus [26] = assay: Analgesic activity in formalin-induced albino CF1 mouse model of hyperalgesia assessed as time spent in paw licking during acute phase at 186 mg/kg, ip administered 0.25 hrs prior to formalin challenge measured first 2 mins of five minutes test for 10 mins by formalin test relative to control; assay type: functional

In the case of `Cc1ccccc1/C=C/C(=O)N[C@@H](C)CO`, the Activity (Mus musculus [1]) is reported as “inactive”, the Activity (Rattus norvegicus [2]) is reported as 249% and the Activity [3] is reported as 25.6 g. It also gave an Activity (Mus musculus [4]) of 96.3 mg/kg, an ED50 (Mus musculus [5]) of 36.8 mg/kg and a Time (Rattus norvegicus [6]) of 2 h. The Activity (Mus musculus [7]) was 53.4 mg/kg, the Activity [8] was 26.5 g and the Activity (Mus musculus [9]) was 74.6 mg/kg. For the same molecule, the Activity (Rattus norvegicus [10]) was 237%, the Time (Mus musculus [11]) was 87.3 s and the Activity (Rattus norvegicus [12]) was 254%. The Activity (Brain [13]) was 82%, the Activity (Mus musculus [14]) was 93.5 mg/kg and the Activity (Mus musculus [15]) was 84.29%. It also gave an Activity (Rattus norvegicus [16]) of 233%, a Time (Mus musculus [17]) of 90 s and an Activity (Mus musculus [18]) of 34.23%. The Time (Mus musculus [19]) was 48.2 s, the Activity (Mus musculus [20]) was “Active” and the Time (Mus musculus [21]) was 67.2 s. The Activity (Mus musculus [22]) was 11.09 mm3, the Activity (Mus musculus [23]) was “Active” and the Activity (Brain [24]) was 106%.
`O=C(/C=C/c1ccc(Cl)cc1)N[C@H]1CC[C@H](O)CC1` gave an Activity (Mus musculus [25]) of 0% and an Activity (Mus musculus [26]) of 21.89%.

— ChEMBL document CHEMBL4387714, “Four N-(E)-cinnamoyl (cinnamamide) derivatives of aminoalkanols with promising anticonvulsant and analgesic activity” (Bioorg Med Chem Lett, 2019)
